# Reference: ChEMBL document CHEMBL4311946, “Mechanistic Insight on the Mode of Action of Colletoic Acid” (J Med Chem, 2019)
# Calls of active or inactive are those of the source. The rule behind the calls is not given here.
# Columns and labels:
# 3T3-L1 [1] = assay: Cell cycle arrest in mouse 3T3L1 cells up to 1 mM measured after 24 hrs under induction medium containing dehydrocorticosterone/cortisone by propidium iodide staining-based flow cytometry; assay type: ADME; details: 3t3-l1, 24 h
# 3T3-L1 [2] = assay: Anti-adipogenic activity in mouse 3T3L1 preadipocytes assessed as reduction in S6K1 mRNA expression at 50 to 100 uM measured daily for 2 days under induction media containing dehydrocorticosterone/cortisone by SYBR green dye-based qRT-PCR analysis; assay type: functional, cell-based
# 3T3-L1 [3] = assay: Cytotoxicity against mouse 3T3L1 cells measured after 72 hrs by celltiter-glo luminescent cell viability assay; assay type: ADME, cell-based; details: 3T3-L1, 72 h
# [4] = target: 11-beta-hydroxysteroid dehydrogenase 1 (Homo sapiens, UniProt P28845); assay: Inhibition of 11beta-HSD1 in human microsomes using [3H] cortisone as substrate by scintillation proximity assay
# Fibroblast = assay: Effect on nascent protein synthesis in mouse fibroblasts assessed as reduction in O-Propargyl-puromycin incorporation at 50 uM by fluorescent azide/pico green dye-based confocal microscopic analysis; assay type: ADME, cell-based
# 3T3-L1 [5] = assay: Cytotoxicity against mouse 3T3L1 preadipocytes up to 1 mM measured after 72 hrs under non-differentiating medium by celltiter-glo luminescent cell viability assay; assay type: cell-based; details: 3t3-l1, 72 h
# 3T3-L1 [6] = assay: Anti-adipogenic activity in mouse 3T3L1 preadipocytes assessed as decrease in lipid accumulation at 50 uM measured after 3 days under induction medium containing dehydrocorticosterone/cortisone by Oil red O staining-based microscopic analysis; assay type: functional, cell-based
# [7] = Volume of distribution at steady state in C57BL6 mouse at 5 to 30 mg/kg, iv by LC-MS analysis; assay type: ADME, organism-based; details: in vivo
# [8] = target: T1, 11-beta-hydroxysteroid dehydrogenase type 2 (Homo sapiens, UniProt P80365); assay: Inhibition of 11beta-HSD2 (unknown origin) expressed in HEK293 cells using cortisone as substrate measured after 2 hrs in presence of NAD+ by HTRF assay; assay type: ADME, cell-based
# T1 sequence (P80365 whole entry): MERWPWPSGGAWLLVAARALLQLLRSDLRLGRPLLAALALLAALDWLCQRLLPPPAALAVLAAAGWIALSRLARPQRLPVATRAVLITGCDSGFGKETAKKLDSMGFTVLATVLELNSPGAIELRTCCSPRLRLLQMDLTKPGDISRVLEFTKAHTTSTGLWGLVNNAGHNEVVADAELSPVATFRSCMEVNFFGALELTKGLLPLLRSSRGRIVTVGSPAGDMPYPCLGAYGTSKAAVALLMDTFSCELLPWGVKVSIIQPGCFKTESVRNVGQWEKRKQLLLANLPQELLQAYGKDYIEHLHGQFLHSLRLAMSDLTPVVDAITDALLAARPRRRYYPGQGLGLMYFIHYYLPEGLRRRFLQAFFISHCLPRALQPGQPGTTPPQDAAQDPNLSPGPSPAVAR
# 3T3-L1 [9] = assay: Effect on total GR expression in differentiated mouse 3T3L1 cells at 50 uM measured on day 3 and 7 by Western blot analysis; assay type: ADME, cell-based; details: 3t3-l1, 50 µM
# 3T3-L1 [10] = assay: Anti-adipogenic activity in differentiated mouse 3T3L1 cells assessed as reduction in PGC1alpha mRNA expression at 50 to 100 uM measured after 2 to 7 days by SYBR green dye-based qRT-PCR analysis relative to control; assay type: functional
# Homo sapiens [11] = assay: Anti-adipogenic activity in human subcutaneous preadipocytes assessed as decrease in lipid accumulation at 50 uM measured after 3 days under induction medium containing hydrocortisone hemi-succinate by oil red O staining-based microscopic analysis; assay type: functional, cell-based
# 3T3-L1 [12] = assay: Anti-adipogenic activity in differentiated mouse 3T3L1 cells assessed as reduction in mitochondrial mass at 50 uM measured on day 7 by mitotracker deep red/hoechst 33342 staining-based confocal imaging analysis; assay type: functional, cell-based
# 3T3-L1 [13] = assay: Anti-adipogenic activity in differentiated mouse 3T3L1 cells assessed as reduction in 11beta-HSD1 expression at 50 uM measured on day 3 by Western blot analysis; assay type: functional, cell-based
# [14] = Half life in mouse liver microsomes; assay type: ADME, Microsome
# 3T3-L1 [15] = assay: Anti-adipogenic activity in mouse 3T3L1 preadipocytes assessed as reduction in C/EBPalpha mRNA expression at 50 to 100 uM measured daily for 2 days under induction media containing dehydrocorticosterone/cortisone by SYBR green dye-based qRT-PCR analysis; assay type: functional, cell-based
# 3T3-L1 [16] = assay: (§1) Anti-adipogenic activity in mouse 3T3L1 preadipocytes assessed as decrease in lipid accumulation at 50 uM incubated for 48 hrs under induction medium containing dehydrocorticosterone/cortisone followed by shifting to differentiation medium and measured after 7 days by Oil red O staining-based microscopic analysis; assay type: functional, cell-based
# [17] = target: T2, Glucocorticoid receptor (Homo sapiens) (UniProt P04150); assay: Antagonist activity at GR in human MDA-MB-231 cells at 50 uM measured after 4 hrs in presence of dexamethasone by luciferase reporter gene assay; assay type: cell-based
# T2 sequence (whole entry): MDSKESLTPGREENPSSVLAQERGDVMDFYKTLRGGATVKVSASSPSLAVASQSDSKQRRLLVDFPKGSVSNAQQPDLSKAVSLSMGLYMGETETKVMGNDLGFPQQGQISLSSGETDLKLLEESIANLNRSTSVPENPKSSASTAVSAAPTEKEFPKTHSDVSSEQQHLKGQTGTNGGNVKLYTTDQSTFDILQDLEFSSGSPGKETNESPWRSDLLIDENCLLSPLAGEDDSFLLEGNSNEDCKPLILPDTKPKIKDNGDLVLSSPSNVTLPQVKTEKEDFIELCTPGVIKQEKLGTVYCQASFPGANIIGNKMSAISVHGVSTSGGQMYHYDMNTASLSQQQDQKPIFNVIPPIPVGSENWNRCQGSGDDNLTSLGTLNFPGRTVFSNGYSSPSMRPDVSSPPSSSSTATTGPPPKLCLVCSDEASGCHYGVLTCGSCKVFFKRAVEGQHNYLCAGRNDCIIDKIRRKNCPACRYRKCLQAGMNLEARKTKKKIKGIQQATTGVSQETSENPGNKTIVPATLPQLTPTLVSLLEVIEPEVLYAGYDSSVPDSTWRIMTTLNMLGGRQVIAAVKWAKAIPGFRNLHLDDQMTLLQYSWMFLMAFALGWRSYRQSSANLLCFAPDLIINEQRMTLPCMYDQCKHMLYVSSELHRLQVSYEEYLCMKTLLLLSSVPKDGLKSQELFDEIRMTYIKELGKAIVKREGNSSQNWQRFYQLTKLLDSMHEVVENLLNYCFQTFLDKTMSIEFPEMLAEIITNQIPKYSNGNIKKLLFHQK
# [18] = Half life in human plasma; assay type: ADME, cell-free
# 3T3-L1 [19] = assay: Anti-adipogenic activity in differentiated mouse 3T3L1 cells assessed as reduction in PPARgamma expression at 50 uM measured on day 3 by Western blot analysis; assay type: functional, cell-based
# Homo sapiens [20] = species on record: Homo sapiens; assay: Anti-adipogenic activity in human visceral preadipocytes assessed as decrease in lipid accumulation at 50 uM measured after 3 days under induction medium containing hydrocortisone hemi-succinate by oil red O staining-based microscopic analysis; assay type: functional, cell-based
# 3T3-L1 [21] = assay: Anti-adipogenic activity in differentiated mouse 3T3L1 cells assessed as reduction in PPARgamma mRNA expression at 50 to 100 uM measured after 2 to 7 days by SYBR green dye-based qRT-PCR analysis; assay type: functional, cell-based
# 3T3-L1 [22] = assay: as §1, with “restoration of cell morphology” for “decrease in lipid accumulation”, “mitotracker red/lipidtox green” for “Oil red O”, “staining-based confocal” for “staining-based”; assay type: functional
# 11-beta-hydroxysteroid dehydrogenase 1, sequence (P28845 whole entry): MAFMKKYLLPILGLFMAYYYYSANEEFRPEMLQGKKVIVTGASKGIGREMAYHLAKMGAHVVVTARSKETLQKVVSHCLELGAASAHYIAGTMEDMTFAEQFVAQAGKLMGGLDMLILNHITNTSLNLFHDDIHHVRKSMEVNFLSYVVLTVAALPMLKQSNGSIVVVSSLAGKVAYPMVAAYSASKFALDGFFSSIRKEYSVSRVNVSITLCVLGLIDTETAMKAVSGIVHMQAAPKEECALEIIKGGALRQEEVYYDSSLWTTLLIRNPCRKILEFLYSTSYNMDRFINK
smiles,measurement,setting,value
CC1=CC[C@@]2(C[C@@H]1O)[C@@H](C(=O)O)CC[C@H]2C(C)C,Activity,3T3-L1 [1],Non-Toxic
same,Activity,3T3-L1 [2],Active
same,EC50,3T3-L1 [3],> 500 µM
same,IC50,[4],0.013 µM
same,Activity,Fibroblast,Non-Toxic
same,Activity,3T3-L1 [5],Non-Toxic
same,Activity,3T3-L1 [6],inactive
same,Vdss,[7],0.247 L/kg
same,IC50,[8],> 500 µM
same,Activity,3T3-L1 [9],Non-Toxic
same,fold change (FC),3T3-L1 [10],<10
same,Activity,Homo sapiens [11],inactive
same,Activity,3T3-L1 [12],Active
same,Activity,3T3-L1 [13],inactive
same,t1/2,[14],1.33 h
same,Activity,3T3-L1 [15],Active
same,Activity,3T3-L1 [16],Active
same,Activity,[17],inactive
same,half-life,[18],> 48 h
same,Activity,3T3-L1 [19],inactive
same,Activity,Homo sapiens [20],inactive
same,Activity,3T3-L1 [21],Active
same,Activity,3T3-L1 [22],Active
